ChEMBL document CHEMBL3297697, “Property- and structure-guided discovery of a tetrahydroindazole series of interleukin-2 inducible T-cell kinase inhibitors” (J Med Chem, 2014)
Converted amounts (≈) assume the structure as drawn.

Experiments:
[1] = Apparent permeability across MDCK cells; assay type: ADME, cell-based, Canis lupus familiaris; details: dog
[2] = AUC in beagle dog at 5 mg/kg, po by LC-MS/MS analysis; assay type: ADME, organism-based, Canis lupus familiaris; design: dose 5 mg/kg, route oral; details: plasma
[3] = Clearance in beagle dog at 1 mg/kg, iv by LC-MS/MS analysis; assay type: ADME, organism-based, Canis lupus familiaris; design: dose 1 mg/kg, route intravenous; details: in vivo
[4] = Cmax in BALB/c mouse at 50 mg/kg, po by LC-MS/MS analysis; assay type: ADME, organism-based; design: dose 50 mg/kg, route oral; details: in vivo
[5] = AUC in Sprague-Dawley rat at 1 mg/kg, iv by LC-MS/MS analysis; assay type: ADME, organism-based; design: dose 1 mg/kg, route intravenous; details: plasma
[6] = target: BDNF/NT-3 growth factors receptor (Homo sapiens) (UniProt Q16620); assay: Inhibition of TRKB (unknown origin) at 0.1 uM
[7] = AUC in Sprague-Dawley rat at 5 mg/kg, po by LC-MS/MS analysis; assay type: ADME, organism-based; design: dose 5 mg/kg, route oral; details: plasma
[8] = target: High affinity nerve growth factor receptor (Homo sapiens) (UniProt P04629); assay: Inhibition of TRKA (unknown origin) at 0.1 uM
[9] = AUC in BALB/c mouse at 50 mg/kg, po by LC-MS/MS analysis; assay type: ADME, organism-based; design: dose 50 mg/kg, route oral; details: plasma
[10] = AUC in BALB/c mouse at 1 mg/kg, iv by LC-MS/MS analysis; assay type: ADME, organism-based; design: dose 1 mg/kg, route intravenous; details: plasma
[11] = AUC in beagle dog at 1 mg/kg, iv by LC-MS/MS analysis; assay type: ADME, organism-based, Canis lupus familiaris; design: dose 1 mg/kg, route intravenous; details: plasma
[12] = Half life in beagle dog at 1 mg/kg, iv by LC-MS/MS analysis; assay type: ADME, organism-based, Canis lupus familiaris; design: dose 1 mg/kg, route intravenous; details: in vivo
[13] = Oral bioavailability in Sprague-Dawley rat at 5 mg/kg by LC-MS/MS analysis; assay type: ADME, organism-based; details: in vivo
physchem [14] = details: PBS buffer, pH 7.4, Kinetic_solubility
[15] = Volume of distribution at steady state in beagle dog at 1 mg/kg, iv by LC-MS/MS analysis; assay type: ADME, organism-based, Canis lupus familiaris; design: dose 1 mg/kg, route intravenous; details: in vivo
[16] = Half life in Sprague-Dawley rat at 1 mg/kg, iv by LC-MS/MS analysis; assay type: ADME, organism-based; design: dose 1 mg/kg, route intravenous; details: in vivo
[17] = tested on: T1, Receptor-type tyrosine-protein kinase FLT3 (Homo sapiens), P36888 [D835Y]; assay: Inhibition of FLT3 D835Y mutant (unknown origin) at 0.1 uM
T1 sequence (whole entry): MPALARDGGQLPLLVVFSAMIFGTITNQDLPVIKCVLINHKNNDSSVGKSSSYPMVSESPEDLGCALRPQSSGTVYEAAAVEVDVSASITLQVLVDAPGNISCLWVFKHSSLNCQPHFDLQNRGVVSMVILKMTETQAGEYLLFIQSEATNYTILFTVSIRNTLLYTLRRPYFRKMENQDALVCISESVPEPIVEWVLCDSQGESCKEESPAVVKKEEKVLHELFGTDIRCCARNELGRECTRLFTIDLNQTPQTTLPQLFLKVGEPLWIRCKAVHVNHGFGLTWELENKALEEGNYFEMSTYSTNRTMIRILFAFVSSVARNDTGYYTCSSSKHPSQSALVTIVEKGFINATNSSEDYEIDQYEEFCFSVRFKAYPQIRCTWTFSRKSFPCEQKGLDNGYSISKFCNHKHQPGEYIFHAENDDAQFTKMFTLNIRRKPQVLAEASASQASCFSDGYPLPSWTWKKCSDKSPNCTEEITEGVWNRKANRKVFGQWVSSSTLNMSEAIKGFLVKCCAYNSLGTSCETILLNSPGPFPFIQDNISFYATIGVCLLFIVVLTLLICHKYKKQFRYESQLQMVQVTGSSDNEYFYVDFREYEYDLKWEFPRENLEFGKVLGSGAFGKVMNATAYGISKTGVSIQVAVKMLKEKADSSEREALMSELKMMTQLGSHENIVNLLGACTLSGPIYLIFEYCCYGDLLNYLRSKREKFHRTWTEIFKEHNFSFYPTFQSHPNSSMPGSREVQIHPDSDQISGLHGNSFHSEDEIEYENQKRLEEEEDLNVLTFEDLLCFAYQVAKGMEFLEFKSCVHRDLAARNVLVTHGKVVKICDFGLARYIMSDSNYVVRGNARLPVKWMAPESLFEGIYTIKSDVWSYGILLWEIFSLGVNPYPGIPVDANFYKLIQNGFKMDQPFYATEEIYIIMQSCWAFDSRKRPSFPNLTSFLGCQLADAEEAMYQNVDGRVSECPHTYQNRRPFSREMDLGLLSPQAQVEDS

[18] = Oral bioavailability in beagle dog at 5 mg/kg by LC-MS/MS analysis; assay type: ADME, organism-based, Canis lupus familiaris; details: in vivo
[19] = target: Dual specificity protein kinase CLK2 (Homo sapiens) (UniProt P49760); assay: Inhibition of CLK2 (unknown origin) at 0.1 uM
[20] = Cmax in beagle dog at 5 mg/kg, po by LC-MS/MS analysis; assay type: ADME, organism-based, Canis lupus familiaris; design: dose 5 mg/kg, route oral; details: in vivo
[21] = Volume of distribution at steady state in Sprague-Dawley rat at 1 mg/kg, iv by LC-MS/MS analysis; assay type: ADME, organism-based; design: dose 1 mg/kg, route intravenous; details: in vivo, read-out: Vdss
[22] = target: Receptor-type tyrosine-protein kinase FLT3 (Homo sapiens) (UniProt P36888); assay: Inhibition of FLT3 (unknown origin) at 0.1 uM
[23] = target: NT-3 growth factor receptor (Homo sapiens) (UniProt Q16288); assay: Inhibition of TRKC (unknown origin) at 0.1 uM
[24] = Clearance in Sprague-Dawley rat at 1 mg/kg, iv by LC-MS/MS analysis; assay type: ADME, organism-based; design: dose 1 mg/kg, route intravenous; details: in vivo
[25] = Plasma protein binding in human; assay type: ADME, cell-free; details: read-out: PPB (converted)
physchem [26] = details: 1-octanol/phosphate buffer, pH 7.4, logD
[27] = Clearance in BALB/c mouse at 1 mg/kg, iv by LC-MS/MS analysis; assay type: ADME, organism-based; design: dose 1 mg/kg, route intravenous; details: in vivo
[28] = Oral bioavailability in BALB/c mouse at 50 mg/kg by LC-MS/MS analysis; assay type: ADME, organism-based; details: in vivo
[29] = Volume of distribution at steady state in BALB/c mouse at 1 mg/kg, iv by LC-MS/MS analysis; assay type: ADME, organism-based; design: dose 1 mg/kg, route intravenous; details: in vivo, read-out: Vdss
[30] = Half life in BALB/c mouse at 1 mg/kg, iv by LC-MS/MS analysis; assay type: ADME, organism-based; design: dose 1 mg/kg, route intravenous; details: in vivo
[31] = Cmax in Sprague-Dawley rat at 5 mg/kg, po by LC-MS/MS analysis; assay type: ADME, organism-based; design: dose 5 mg/kg, route oral; details: in vivo

Sequence of BDNF/NT-3 growth factors receptor (Homo sapiens) (Q16620 32-822 limits assumed): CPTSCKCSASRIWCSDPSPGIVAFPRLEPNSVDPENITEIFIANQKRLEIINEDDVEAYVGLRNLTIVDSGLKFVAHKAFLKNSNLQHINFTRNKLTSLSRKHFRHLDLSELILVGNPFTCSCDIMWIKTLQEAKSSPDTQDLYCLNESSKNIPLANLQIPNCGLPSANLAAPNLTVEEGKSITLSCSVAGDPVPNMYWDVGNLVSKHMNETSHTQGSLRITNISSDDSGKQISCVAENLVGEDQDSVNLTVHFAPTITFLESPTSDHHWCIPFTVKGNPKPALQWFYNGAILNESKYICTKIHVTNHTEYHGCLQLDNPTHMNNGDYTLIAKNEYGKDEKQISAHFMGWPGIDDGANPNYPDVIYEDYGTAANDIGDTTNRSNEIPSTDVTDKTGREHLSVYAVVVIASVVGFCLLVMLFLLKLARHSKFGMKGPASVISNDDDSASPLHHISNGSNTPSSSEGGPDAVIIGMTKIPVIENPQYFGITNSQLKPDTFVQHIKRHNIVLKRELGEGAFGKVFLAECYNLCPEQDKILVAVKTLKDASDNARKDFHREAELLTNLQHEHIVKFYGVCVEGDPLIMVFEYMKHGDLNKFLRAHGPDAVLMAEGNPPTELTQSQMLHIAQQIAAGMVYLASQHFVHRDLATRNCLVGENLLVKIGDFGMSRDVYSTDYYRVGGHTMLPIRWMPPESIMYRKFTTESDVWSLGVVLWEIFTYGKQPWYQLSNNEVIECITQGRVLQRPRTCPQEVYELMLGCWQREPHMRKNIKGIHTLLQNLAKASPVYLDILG
Sequence of High affinity nerve growth factor receptor (Homo sapiens) (P04629 33-796 limits assumed): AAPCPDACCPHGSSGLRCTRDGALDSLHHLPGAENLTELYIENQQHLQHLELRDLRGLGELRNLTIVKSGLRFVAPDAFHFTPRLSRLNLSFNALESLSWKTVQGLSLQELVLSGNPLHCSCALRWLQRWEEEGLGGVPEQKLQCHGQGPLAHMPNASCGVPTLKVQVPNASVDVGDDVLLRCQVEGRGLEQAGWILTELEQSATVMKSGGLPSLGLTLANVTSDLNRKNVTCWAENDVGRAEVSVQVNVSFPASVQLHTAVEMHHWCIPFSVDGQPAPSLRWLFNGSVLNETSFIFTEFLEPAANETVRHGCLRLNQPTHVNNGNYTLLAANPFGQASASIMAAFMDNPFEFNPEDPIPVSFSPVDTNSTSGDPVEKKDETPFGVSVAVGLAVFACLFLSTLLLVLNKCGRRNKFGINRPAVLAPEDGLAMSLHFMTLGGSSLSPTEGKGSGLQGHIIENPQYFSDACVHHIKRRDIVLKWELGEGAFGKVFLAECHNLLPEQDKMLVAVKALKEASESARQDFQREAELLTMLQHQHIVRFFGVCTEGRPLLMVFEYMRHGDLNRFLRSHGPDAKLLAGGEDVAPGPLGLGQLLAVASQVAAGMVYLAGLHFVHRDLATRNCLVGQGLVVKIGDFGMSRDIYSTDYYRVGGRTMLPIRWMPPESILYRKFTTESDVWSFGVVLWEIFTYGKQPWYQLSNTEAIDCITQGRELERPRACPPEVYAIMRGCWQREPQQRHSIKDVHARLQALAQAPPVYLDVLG
Sequence of Dual specificity protein kinase CLK2 (Homo sapiens) (P49760 whole entry, looked up): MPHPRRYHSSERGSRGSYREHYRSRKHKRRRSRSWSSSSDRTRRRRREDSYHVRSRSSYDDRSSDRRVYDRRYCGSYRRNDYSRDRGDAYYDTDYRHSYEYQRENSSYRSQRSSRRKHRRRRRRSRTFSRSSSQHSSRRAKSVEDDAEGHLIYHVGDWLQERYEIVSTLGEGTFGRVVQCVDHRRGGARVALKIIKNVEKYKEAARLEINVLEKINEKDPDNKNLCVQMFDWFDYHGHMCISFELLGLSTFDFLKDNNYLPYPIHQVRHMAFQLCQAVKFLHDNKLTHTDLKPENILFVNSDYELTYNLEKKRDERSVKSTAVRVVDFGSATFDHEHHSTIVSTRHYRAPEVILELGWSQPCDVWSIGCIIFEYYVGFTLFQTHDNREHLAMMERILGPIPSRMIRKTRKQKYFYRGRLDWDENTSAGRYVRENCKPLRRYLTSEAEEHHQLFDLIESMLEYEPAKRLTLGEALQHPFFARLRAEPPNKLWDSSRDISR
Sequence of NT-3 growth factor receptor (Homo sapiens) (Q16288 32-839 limits assumed): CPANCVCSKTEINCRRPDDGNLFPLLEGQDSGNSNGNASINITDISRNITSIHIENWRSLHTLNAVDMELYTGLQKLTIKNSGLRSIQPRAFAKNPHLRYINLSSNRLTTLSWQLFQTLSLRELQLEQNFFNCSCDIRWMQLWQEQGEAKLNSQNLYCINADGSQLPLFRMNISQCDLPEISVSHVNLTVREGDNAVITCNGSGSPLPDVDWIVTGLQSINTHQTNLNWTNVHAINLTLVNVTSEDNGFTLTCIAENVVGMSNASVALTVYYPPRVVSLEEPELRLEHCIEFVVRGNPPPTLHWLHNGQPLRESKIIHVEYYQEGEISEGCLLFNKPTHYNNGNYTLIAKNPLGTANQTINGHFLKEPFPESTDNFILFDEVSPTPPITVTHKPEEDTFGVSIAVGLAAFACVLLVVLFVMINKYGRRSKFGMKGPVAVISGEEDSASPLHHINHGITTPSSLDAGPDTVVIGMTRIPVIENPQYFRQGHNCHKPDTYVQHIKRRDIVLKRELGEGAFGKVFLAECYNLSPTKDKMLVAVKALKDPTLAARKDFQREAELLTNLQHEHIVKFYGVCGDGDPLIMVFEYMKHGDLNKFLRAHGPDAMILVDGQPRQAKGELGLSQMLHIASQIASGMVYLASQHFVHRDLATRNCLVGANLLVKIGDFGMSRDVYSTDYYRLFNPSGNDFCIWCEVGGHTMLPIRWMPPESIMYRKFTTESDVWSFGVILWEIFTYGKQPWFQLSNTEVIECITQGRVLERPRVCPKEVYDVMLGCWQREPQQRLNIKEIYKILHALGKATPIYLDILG

With `CN(C)CC[C@@H](c1ccccc1)n1cc(NC(=O)c2n[nH]c3c2CCC(C)(C)C3)cn1` the Papp [1] was 4.6 ×10⁻⁶ cm/s, the AUC [2] was 10 µM·h and the clearance [3] was 21 mL/min/kg. It also gave a Cmax [4] of 3800 nM, an AUC [5] of 0.6 µM·h and an inhibition [6] of 91%. It also gave an AUC [7] of 1.1 µM·h, an inhibition [8] of 80% and an AUC [9] of 27 µM·h. The AUC [10] was 1.5 µM·h, the AUC [11] was 1.9 µM·h and the half-life [12] was 5.4 h. The bioavailability [13] was 40%, the solubility kinetic at 24 h, 10000 µM (physchem [14]) was 68 µM (≈ 28.6 µg/mL) and the Vd [15] was 6.7 L/kg. The half-life [16] was 3 h, the inhibition [17] was 75% and the bioavailability [18] was 100%. For the same molecule, the inhibition [19] was 93%, the Cmax [20] was 900 nM and the Vd [21] was 14 L/kg. The inhibition [22] was 76%, the inhibition [23] was 88% and the clearance [24] was 70 mL/min/kg. The fraction unbound [25] was 0.07, the logD at 20 min, 10000 µM (physchem [26]) was 2 and the clearance [27] was 40 mL/min/kg. It also gave a bioavailability [28] of 36%, a Vd [29] of 10 L/kg and a half-life [30] of 2.9 h. The Cmax [31] was 200 nM.
